Legend:
[1] = xn = mol fraction of the nth substance listed; details: 101 kPa, Liquid; for speed of sound: Linear variable-path acoustic interferometer
[2] = refractive index (Na D-line) (dimensionless); xn = mol fraction of the nth substance listed; details: 101 kPa, Liquid

CC1CCCCC1 [methylcyclohexane] + CCCCO
Details | mass density, 298.15 K [kg/m3] | mass density, 303.15 K [kg/m3] | mass density, 308.15 K [kg/m3] | refractive index, 298.15 K | refractive index, 303.15 K | refractive index, 308.15 K | speed of sound, 298.15 K [m/s] | viscosity, 298.15 K [mPa·s] | viscosity, 303.15 K [mPa·s] | viscosity, 308.15 K [mPa·s]
[1], x1 = 0.1021 | 801.93 | 797.96 | 793.95 | – | – | – | 1263 | 2.396 | 2.122 | 1.848
[1], x1 = 0.2041 | 795.62 | 791.47 | 787.32 | – | – | – | 1258 | 2.205 | 1.957 | 1.709
[1], x1 = 0.3027 | 790.23 | 786.03 | 781.87 | – | – | – | 1253 | 2.021 | 1.797 | 1.573
[1], x1 = 0.4013 | 785.45 | 781.24 | 776.99 | – | – | – | 1248 | 1.834 | 1.636 | 1.438
[1], x1 = 0.5039 | 780.86 | 776.57 | 772.29 | – | – | – | 1243 | 1.639 | 1.468 | 1.296
[1], x1 = 0.6066 | 776.73 | 772.4 | 768.04 | – | – | – | 1238 | 1.443 | 1.288 | 1.153
[1], x1 = 0.7014 | 773.21 | 768.83 | 764.46 | – | – | – | 1233 | 1.262 | 1.141 | 1.021
[1], x1 = 0.7963 | 770.14 | 765.74 | 761.34 | – | – | – | 1227 | 1.08 | 0.9828 | 0.8858
[1], x1 = 0.8981 | 767.52 | 763.15 | 758.77 | – | – | – | 1222 | 0.8808 | 0.8104 | 0.74
[1], x1 = 1 | 764.99 | 760.66 | 756.3 | – | – | – | 1217 | 0.6757 | 0.631 | 0.5902
[2], x1 = 0.1021 | – | – | – | 1.4036 | 1.4015 | 1.3994 | – | – | – | –
[2], x1 = 0.2041 | – | – | – | 1.4034 | 1.4008 | 1.3982 | – | – | – | –
[2], x1 = 0.3027 | – | – | – | 1.406 | 1.4035 | 1.4009 | – | – | – | –
[2], x1 = 0.4013 | – | – | – | 1.4087 | 1.4062 | 1.4037 | – | – | – | –
[2], x1 = 0.5039 | – | – | – | 1.4105 | 1.4081 | 1.4057 | – | – | – | –
[2], x1 = 0.6066 | – | – | – | 1.4121 | 1.4099 | 1.4076 | – | – | – | –
[2], x1 = 0.7014 | – | – | – | 1.4147 | 1.4122 | 1.4097 | – | – | – | –
[2], x1 = 0.7963 | – | – | – | 1.4169 | 1.4143 | 1.4117 | – | – | – | –
[2], x1 = 0.8981 | – | – | – | 1.4193 | 1.4167 | 1.414 | – | – | – | –
[2], x1 = 1 | – | – | – | 1.4217 | 1.4192 | 1.4163 | – | – | – | –

CC(C)O [propan-2-ol] + CC1CCCCC1
x2 = 0
Details | mass density, 298.15 K [kg/m3] | mass density, 303.15 K [kg/m3] | mass density, 308.15 K [kg/m3] | refractive index, 298.15 K | refractive index, 303.15 K | refractive index, 308.15 K | speed of sound, 298.15 K [m/s] | viscosity, 298.15 K [mPa·s] | viscosity, 303.15 K [mPa·s] | viscosity, 308.15 K [mPa·s]
[1] | 781.05 | 776.79 | 772.43 | – | – | – | 1144 | 2.076 | 1.786 | 1.532
[2] | – | – | – | 1.3765 | 1.3741 | 1.3716 | – | – | – | –

CC1CCCCC1 [methylcyclohexane] + CC(C)O
Details | mass density, 298.15 K [kg/m3] | mass density, 303.15 K [kg/m3] | mass density, 308.15 K [kg/m3] | refractive index, 298.15 K | refractive index, 303.15 K | refractive index, 308.15 K | speed of sound, 298.15 K [m/s] | viscosity, 298.15 K [mPa·s] | viscosity, 303.15 K [mPa·s] | viscosity, 308.15 K [mPa·s]
[1], x1 = 0.1001 | 777.28 | 772.86 | 768.43 | – | – | – | 1151 | 1.634 | 1.441 | 1.248
[1], x1 = 0.2033 | 774.39 | 769.88 | 765.38 | – | – | – | 1159 | 1.35 | 1.197 | 1.044
[1], x1 = 0.3065 | 771.5 | 766.95 | 762.32 | – | – | – | 1166 | 1.117 | 1.004 | 0.8905
[1], x1 = 0.4049 | 769.55 | 764.95 | 760.33 | – | – | – | 1173 | 0.9645 | 0.8716 | 0.7785
[1], x1 = 0.5034 | 767.6 | 763.01 | 758.34 | – | – | – | 1181 | 0.8434 | 0.7708 | 0.698
[1], x1 = 0.6022 | 766.22 | 761.62 | 757 | – | – | – | 1188 | 0.7815 | 0.7193 | 0.6573
[1], x1 = 0.7009 | 765.17 | 760.61 | 756 | – | – | – | 1195 | 0.7197 | 0.6681 | 0.6167
[1], x1 = 0.8021 | 764.75 | 760.25 | 755.69 | – | – | – | 1203 | 0.703 | 0.6546 | 0.6061
[1], x1 = 0.9032 | 764.43 | 759.88 | 755.37 | – | – | – | 1210 | 0.6864 | 0.641 | 0.5955
[1], x1 = 1 | 764.99 | 760.66 | 756.3 | – | – | – | 1217 | 0.6757 | 0.631 | 0.5902
[2], x1 = 0.1001 | – | – | – | 1.3822 | 1.3798 | 1.3775 | – | – | – | –
[2], x1 = 0.2033 | – | – | – | 1.3879 | 1.3854 | 1.3829 | – | – | – | –
[2], x1 = 0.3065 | – | – | – | 1.3936 | 1.3909 | 1.3883 | – | – | – | –
[2], x1 = 0.4049 | – | – | – | 1.3983 | 1.3956 | 1.3928 | – | – | – | –
[2], x1 = 0.5034 | – | – | – | 1.4029 | 1.4001 | 1.3973 | – | – | – | –
[2], x1 = 0.6022 | – | – | – | 1.4068 | 1.404 | 1.4013 | – | – | – | –
[2], x1 = 0.7009 | – | – | – | 1.4106 | 1.408 | 1.4053 | – | – | – | –
[2], x1 = 0.8021 | – | – | – | 1.4145 | 1.4118 | 1.4092 | – | – | – | –
[2], x1 = 0.9032 | – | – | – | 1.4184 | 1.4158 | 1.413 | – | – | – | –
[2], x1 = 1 | – | – | – | 1.4217 | 1.4192 | 1.4163 | – | – | – | –

CC(C)CO [2-methyl-1-propanol] + CC1CCCCC1
x2 = 0
Details | mass density, 298.15 K [kg/m3] | mass density, 303.15 K [kg/m3] | mass density, 308.15 K [kg/m3] | refractive index, 298.15 K | refractive index, 303.15 K | refractive index, 308.15 K | speed of sound, 298.15 K [m/s] | viscosity, 298.15 K [mPa·s] | viscosity, 303.15 K [mPa·s] | viscosity, 308.15 K [mPa·s]
[1] | 809.31 | 805.23 | 801.11 | – | – | – | 1170 | 3.097 | 2.635 | 2.249
[2] | – | – | – | 1.3932 | 1.3917 | 1.3896 | – | – | – | –

CCCO [propan-1-ol] + CC1CCCCC1
x2 = 0
Details | mass density, 298.15 K [kg/m3] | mass density, 303.15 K [kg/m3] | mass density, 308.15 K [kg/m3] | refractive index, 298.15 K | refractive index, 303.15 K | refractive index, 308.15 K | speed of sound, 298.15 K [m/s] | viscosity, 298.15 K [mPa·s] | viscosity, 303.15 K [mPa·s] | viscosity, 308.15 K [mPa·s]
[1] | 809.65 | 805.5 | 801.32 | – | – | – | 1206 | 2.077 | 1.809 | 1.595
[2] | – | – | – | 1.384 | 1.3819 | 1.38 | – | – | – | –

CC(C)CCO [3-methylbutan-1-ol] + CC1CCCCC1
Details | mass density, 298.15 K [kg/m3] | mass density, 303.15 K [kg/m3] | mass density, 308.15 K [kg/m3] | refractive index, 298.15 K | refractive index, 303.15 K | refractive index, 308.15 K | speed of sound, 298.15 K [m/s] | viscosity, 298.15 K [mPa·s] | viscosity, 303.15 K [mPa·s] | viscosity, 308.15 K [mPa·s]
[1], x2 = 0 | 820.17 | 816.28 | 812.34 | – | – | – | 1259 | 2.779 | 2.258 | 1.844
[1], x2 = 0.1002 | 814.65 | 810.69 | 806.74 | – | – | – | 1255 | 2.569 | 2.144 | 1.719
[1], x2 = 0.2011 | 809.13 | 805.14 | 801.13 | – | – | – | 1250 | 2.359 | 1.976 | 1.593
[1], x2 = 0.3001 | 803.62 | 799.57 | 795.53 | – | – | – | 1246 | 2.151 | 1.81 | 1.47
[1], x2 = 0.4016 | 798.1 | 794.02 | 789.92 | – | – | – | 1242 | 1.938 | 1.641 | 1.343
[1], x2 = 0.5019 | 792.58 | 788.45 | 784.32 | – | – | – | 1238 | 1.728 | 1.472 | 1.217
[1], x2 = 0.6012 | 787.06 | 782.89 | 778.72 | – | – | – | 1234 | 1.519 | 1.306 | 1.093
[1], x2 = 0.702 | 781.54 | 777.33 | 773.11 | – | – | – | 1230 | 1.307 | 1.136 | 0.9662
[1], x2 = 0.8011 | 776.03 | 771.78 | 767.51 | – | – | – | 1226 | 1.097 | 0.9594 | 0.8412
[1], x2 = 0.9009 | 770.51 | 766.22 | 761.9 | – | – | – | 1221 | 0.8861 | 0.8008 | 0.7156
[2], x2 = 0 | – | – | – | 1.4056 | 1.4034 | 1.4013 | – | – | – | –
[2], x2 = 0.1002 | – | – | – | 1.4073 | 1.405 | 1.4028 | – | – | – | –
[2], x2 = 0.2011 | – | – | – | 1.4089 | 1.4066 | 1.4043 | – | – | – | –
[2], x2 = 0.3001 | – | – | – | 1.4105 | 1.4081 | 1.4058 | – | – | – | –
[2], x2 = 0.4016 | – | – | – | 1.4121 | 1.4097 | 1.4073 | – | – | – | –
[2], x2 = 0.5019 | – | – | – | 1.4137 | 1.4112 | 1.4088 | – | – | – | –
[2], x2 = 0.6012 | – | – | – | 1.4153 | 1.4128 | 1.4103 | – | – | – | –
[2], x2 = 0.702 | – | – | – | 1.4169 | 1.4144 | 1.4118 | – | – | – | –
[2], x2 = 0.8011 | – | – | – | 1.4185 | 1.4159 | 1.4133 | – | – | – | –
[2], x2 = 0.9009 | – | – | – | 1.4201 | 1.4174 | 1.4148 | – | – | – | –
